US11213509B2, “Compositions and methods for treating traumatic brain injury” (Ischemix, LLC, priority 2017, dated 2022)

Assays:
[1] = Body weight change, fluid percussion model of diffused TBI; assay type: in vivo, rat; conditions: 7.5, 15, 30, 45 mg/kg i.v. vs vehicle; 28 days
Procedure: On the day before TBI surgery (Day −1), rats were anesthetized with 3% isoflurane in a mixture of nitrous oxide and oxygen (2:1) for induction of anesthesia and then maintained at 1-3% isoflurane in a mixture of nitrous oxide and oxygen (2:1). The surgical site skin was shaved, and the rat was then placed in a stereotaxic frame. Buprenorphine SR, s.c, (0.9-1.2 mg/kg Zoopharm: Lot: BSR1-142111) and Cefazolin, i.p., (40-50 mg/kg; Hospira: Lot: 101D032) was given at this time. The skull was exposed through a midline incision. A parasagittal craniotomy (5 mm) using a trephine drill was performed at 1 mm posterior to bregma and 1 mm lateral to the midline (outer circumference). […]
On the day of TBI surgery (Day 0), rats were re-anesthetized with 3% isoflurane in a mixture of nitrous oxide and oxygen (2:1), intubated, connected to a respirator and ventilated with 1-2% isoflurane in a mixture of nitrous oxide and oxygen (2:1). […] The amplitude of the resulting pressure pulse was measured in atmospheres by a pressure transducer. […]
Dosing solutions were prepared in a blinded fashion with H, I, M, O and Z labels ready to use. […]
All data were expressed as mean S.E.M. Behavioral data and weight were analyzed by repeated measures of ANOVA and/or ANCOVA. […]

[2] = system: mitochondrial bioenergetics; test: Mitochondrial respiration (respiratory control ratio) 24 hours post-CCI, focal TBI model in piglets; assay type: in vivo
Procedure: Study Design: A blinded, placebo controlled proof of concept trial of CMX-2043 was conducted in four-week-old piglets (8-10 kg). […] Sixteen piglets (n=16) were designated into three cohorts: 1) Controlled cortical impact (CCI) at the rostral gyrus treated with a bolus of CMX-2043 (n=5), 2) CCI injured animals treated with placebo (n=5) and 3) sham animals (n=6). CMX-2043 treated animals received an intravenous loading bolus of CMX-2043 (13.4 mg/kg) 1 hour post-TBI and a 4.5 mg/kg bolus at 13 hours post-TBI. Subjects were intubated, ventilated and anesthesia maintained on isoflurane (1.0%). Buprenorphine (0.02 mg/kg IM) was administered for analgesia immediately following intubation. Monitors recorded oxygen saturation, heart rate, respiration rate, rectal temperature, and end tidal CO2. […] All piglets were sacrificed between 24-25 hours post-TBI.
Mitochondrial Respiration and ROS Production: Twenty four hours post-CCI the ipsilateral penumbra and mirrored contralateral cortex were harvested. The rate of oxygen consumption was recorded via high-resolution Oroboros Oxygraph-2k™ with a specific Substrate-Uncouple-Inhibitor-Titration Protocol (SUIT). […] Maximal reserve capacity of the electron transfer system (ETSCI+CII) was measured by titrating the protonophore carbonyl cyanide p-(trifluoro-methoxy) phenylhydrazone (FCCP). […]

SMILES: CC(NC(=O)C(CCC(=O)O)NC(=O)CCCCC1CCSS1)C(=O)O [CMX-2043, N—(R)-lipoyl-glutamylalanine]
- Body weight over time [1]: no significant differences
- Respiratory control ratio (RCR; OXPHOS CI+CII/LEAK CI+CII) ([2]; contralateral cortex, P=0.09 vs placebo): 11.05±1.71
- Respiratory control ratio (RCR; OXPHOS CI+CII/LEAK CI+CII) ([2]; ipsilateral cortex, i.v. 13.4 mg/kg at 1 hour and 4.5 mg/kg at 13 hours post-TBI, p<0.05 vs placebo): 11.61±2.28
